Data as given in the NIST ThermoML archive (doi:10.1021/acs.jced.6b00470).
Numbers after ± are expanded uncertainties.

What was measured:
[1] = Liquid; for mass density / viscosity: 101.33 kPa; for mass density: Vibrating tube method; for viscosity: Vibrating wire viscometry; for vapor or sublimation pressure: Ebulliometric method (Recirculating still)
[2] = refractive index (other wavelength) (dimensionless); details: 100 kPa, Liquid, Standard Abbe refractometry

COC(=O)c1ccc(C(C)(C)C)cc1 [methyl 4-tert-butylbenzoate]
[1]
Details | mass density [kg/m3] | vapor or sublimation pressure [kPa] | viscosity [mPa·s]
293.15 K | 1008.55 ± 1.5 | – | 6.867 ± 0.36
298.15 K | 1004.06 ± 1.5 | – | 5.867 ± 0.35
303.15 K | 999.54 ± 1.5 | – | 5.013 ± 0.34
308.15 K | 994.01 ± 1.5 | – | 4.291 ± 0.33
313.15 K | 989.09 ± 1.5 | – | 3.687 ± 0.32
318.15 K | 983.89 ± 1.5 | – | 3.188 ± 0.31
323.15 K | 979.29 ± 1.5 | – | 2.781 ± 0.31
328.15 K | 974.01 ± 1.5 | – | 2.451 ± 0.31
333.15 K | 969.29 ± 1.5 | – | 2.185 ± 0.3
338.15 K | 964.47 ± 1.5 | – | 1.969 ± 0.3
343.15 K | 959.5 ± 1.5 | – | 1.79 ± 0.3
348.15 K | 954.38 ± 1.5 | – | 1.634 ± 0.3
353.15 K | 948.71 ± 1.5 | – | 1.487 ± 0.3
398.3 K | – | 1.21 ± 0.41 | –
408.4 K | – | 1.89 ± 0.41 | –
411.3 K | – | 2.13 ± 0.41 | –
421.3 K | – | 3.19 ± 0.42 | –
430.4 K | – | 4.51 ± 0.43 | –
434.9 K | – | 5.32 ± 0.45 | –
440.6 K | – | 6.53 ± 0.46 | –
446.1 K | – | 7.93 ± 0.48 | –
448.2 K | – | 8.53 ± 0.51 | –
452.4 K | – | 9.87 ± 0.52 | –
454.3 K | – | 10.53 ± 0.54 | –
457.2 K | – | 11.6 ± 0.56 | –
459.7 K | – | 12.61 ± 0.58 | –
462.6 K | – | 13.87 ± 0.6 | –
464.3 K | – | 14.67 ± 0.63 | –
466.3 K | – | 15.67 ± 0.66 | –
467.2 K | – | 16.13 ± 0.66 | –
470.7 K | – | 18 ± 0.69 | –
473.6 K | – | 19.73 ± 0.73 | –
475.1 K | – | 20.67 ± 0.77 | –
477.9 K | – | 22.53 ± 0.8 | –
480.1 K | – | 24.13 ± 0.84 | –
482.4 K | – | 25.87 ± 0.88 | –
483.3 K | – | 26.53 ± 0.87 | –
484.9 K | – | 27.88 ± 0.93 | –
486.4 K | – | 29.13 ± 0.93 | –
487.9 K | – | 30.4 ± 0.97 | –
489.5 K | – | 31.86 ± 1 | –
490.6 K | – | 32.93 ± 1 | –
492.4 K | – | 34.66 ± 1 | –

refractive index, [2]
Details | Wavelength=404.7 nm | Wavelength=435.8 nm | Wavelength=486.1 nm | Wavelength=546.1 nm | Wavelength=587.6 nm | Wavelength=589.3 nm | Wavelength=632.8 nm | Wavelength=644 nm | Wavelength=706.5 nm
293.15 K | 1.53993 ± 0.00056 | 1.53137 ± 0.00054 | 1.52182 ± 0.00052 | 1.51423 ± 0.0005 | 1.51053 ± 0.0005 | 1.51039 ± 0.0005 | 1.50735 ± 0.0005 | 1.50663 ± 0.0005 | 1.50334 ± 0.00049
298.15 K | 1.53745 ± 0.00056 | 1.52893 ± 0.00054 | 1.51944 ± 0.00051 | 1.51188 ± 0.0005 | 1.5082 ± 0.0005 | 1.50807 ± 0.00049 | 1.50504 ± 0.0005 | 1.50433 ± 0.0005 | 1.50105 ± 0.00049
303.15 K | 1.5352 ± 0.00056 | 1.52672 ± 0.00054 | 1.51725 ± 0.00051 | 1.50975 ± 0.0005 | 1.50608 ± 0.00049 | 1.50595 ± 0.0005 | 1.50293 ± 0.0005 | 1.50222 ± 0.0005 | 1.49897 ± 0.00049
308.15 K | 1.53292 ± 0.00056 | 1.52448 ± 0.00054 | 1.51505 ± 0.00051 | 1.50756 ± 0.0005 | 1.50382 ± 0.00051 | 1.50368 ± 0.00049 | 1.50107 ± 0.0005 | 1.50004 ± 0.0005 | 1.49686 ± 0.00049
313.15 K | 1.5307 ± 0.00056 | 1.52231 ± 0.00054 | 1.5129 ± 0.00051 | 1.50548 ± 0.0005 | 1.50185 ± 0.00049 | 1.50172 ± 0.0005 | 1.49872 ± 0.0005 | 1.49802 ± 0.0005 | 1.49479 ± 0.00049
318.15 K | 1.52841 ± 0.00056 | 1.52004 ± 0.00054 | 1.5107 ± 0.00051 | 1.50329 ± 0.0005 | 1.4997 ± 0.0005 | 1.49957 ± 0.0005 | 1.49659 ± 0.0005 | 1.49589 ± 0.0005 | 1.49268 ± 0.00049
323.15 K | 1.52614 ± 0.00056 | 1.5178 ± 0.0005 | 1.50849 ± 0.00051 | 1.50112 ± 0.0005 | 1.49755 ± 0.0005 | 1.49742 ± 0.0005 | 1.49445 ± 0.0005 | 1.49375 ± 0.0005 | 1.49056 ± 0.00049
328.15 K | 1.52383 ± 0.00056 | 1.51554 ± 0.00053 | 1.50627 ± 0.00051 | 1.49894 ± 0.0005 | 1.49537 ± 0.0005 | 1.49525 ± 0.0005 | 1.49225 ± 0.0005 | 1.49161 ± 0.00049 | 1.48842 ± 0.00049
333.15 K | 1.52158 ± 0.00056 | 1.51332 ± 0.00053 | 1.50407 ± 0.00051 | 1.49678 ± 0.0005 | 1.49326 ± 0.00049 | 1.49314 ± 0.0005 | 1.4902 ± 0.0005 | 1.4895 ± 0.0005 | 1.48634 ± 0.00049
338.15 K | 1.51926 ± 0.00056 | 1.51104 ± 0.00053 | 1.50186 ± 0.00051 | 1.4946 ± 0.0005 | 1.49108 ± 0.0005 | 1.49096 ± 0.0005 | 1.48801 ± 0.0005 | 1.48735 ± 0.0005 | 1.48419 ± 0.00049
343.15 K | 1.51699 ± 0.00056 | 1.50881 ± 0.00053 | 1.49967 ± 0.00051 | 1.49246 ± 0.0005 | 1.48895 ± 0.0005 | 1.48883 ± 0.0005 | 1.48591 ± 0.0005 | 1.48523 ± 0.0005 | 1.48208 ± 0.00049
348.15 K | 1.5147 ± 0.00056 | 1.50655 ± 0.00053 | 1.49745 ± 0.00051 | 1.49026 ± 0.0005 | 1.48678 ± 0.0005 | 1.48667 ± 0.0005 | 1.48376 ± 0.0005 | 1.48309 ± 0.0005 | 1.47995 ± 0.00049
353.15 K | 1.51239 ± 0.00056 | 1.50427 ± 0.00053 | 1.49523 ± 0.00051 | 1.48807 ± 0.0005 | 1.48461 ± 0.0005 | 1.48449 ± 0.0005 | 1.48162 ± 0.0005 | 1.48094 ± 0.0005 | 1.47781 ± 0.00049
